Molecules are shown by their SMILES.

Here are results for 13 compounds from patent publication US20100152044A1, “Plant growth regulation” (Bayer CropScience GmbH, priority 2004, published 2010).

Series [1] deals with wheat (Triticum aestivum, variety TRISO). Description: Root growth assay, seed treatment, wheat. The format is in vivo. To be noted: Root Growth of 100 is set as the standard, wet root weight 16 (±2) days post treatment. An excerpt: (§1) Plant roots are a highly proliferative tissue that allows an easy accessible, cheap and short term screening method for plant growth regulators. The results obtained can easily be transferred to the overall effects on a plant of plant growth regulators identified by such a system. By using this root assay one is enabled to determine the effect of a seed treatment to root growth and/or germination and/or changes in habitat of germinated plants in order to identify the possible use as a yield enhancer. Two seeds of wheat (Triticum aestivum, variety “TRISO”) or 1 seed of maize (Zea mays, variety “LORENZO”) per hole in a plastic tray which contains an architecture of 8×13 holes were placed on compost soil covered with sand. These seeds were treated with 100 μl/hole, which creates an application volume of approx. 1200 l/ha, of a compound solution at active ingredient rates equivalent to 100, 10 and 1 g a.i./ha of each compound using an robotic application system (Lizzy Spray Robotics). Six replicates in a row of each compound and concentration were done. The outer rim of the above defined plastic tray was untreated to avoid false negative effects and the middle row (No. 7) was used as untreated control. The treated seeds were allowed to dry for approx. 4 hours and subsequently covered with sand and watered. The trays were stored in climate chambers with 14 hours lighting at a temperature of 24° C. (±2) at daytime and 16° C. (±2) at night and relative humidity (rH) of 60% and daily watered. Assessments were done 16 (±2) days post treatment by counting the germinated plants and assessing the phytotoxicity symptoms and percentage. In addition, the roots were washed out and the shoots were cut directly above the seed and the wet roots were placed on dry paper towels for approximately 30 minutes and weighted afterwards. This procedure provides a similar grade of moisture to the roots so that a comparison of the weights is possible.
(§2) The effects observed concerning Root Growth given in column 2 (Root Growth of “100” is set as the standard) are directed to concentrations that are equivalent to 100, 10, 1 g a.i./ha, each.

Series [2] deals with maize (Zea mays, variety LORENZO). In words: Root growth assay, seed treatment, maize. The note with it: Root Growth of 100 is set as the standard, wet root weight 16 (±2) days post treatment. The format is in vivo.
Description: as §1, §2

For `O=C1NC(=O)C(c2c[nH]c3ccccc23)=C1c1c[nH]c2ccccc12` [Compound 1, 3,4-Di-(1H-indol-3-yl)pyrrole-2,5-dione], the “Root Growth” value in series [1] (1 g a.i./ha) turned out to be 69; in series [1] (10 g a.i./ha), 129; in series [1] (100 g a.i./ha), 133.

Usually melting point stands for the temperature of the solid-liquid transition. For the compound `O=C1NC(=O)C(c2ccccc2)=C1Nc1cccc(Cl)c1` [Compound 1.1, 3-(3-Chlorophenylamino)-4-phenylpyrrole-2,5-dione], the melting point worked out at 187 °C.

The compound `O=C1NC(=O)C(c2ccccc2)=C1Nc1ccc(Cl)c(Cl)c1` [Compound 1.2, 3-(3,4-dichlorophenylamino)-4-phenylpyrrole-2,5-dione] had a melting point of 242 °C. For the same compound, in series [2] (1 g a.i./ha), the “Root Growth” value was 130. In series [2] (10 g a.i./ha), the “Root Growth” value is reported as 117. The “Root Growth” value in series [2] (100 g a.i./ha) is listed as 141.

`O=C1NC(=O)C(c2ccccc2)=C1Nc1ccc(OC(F)(F)F)cc1` [Compound 1.6, 3-Phenyl-4-(4-trifluoromethoxyphenylamino)pyrrole-2,5-dione]: the melting point was 206 °C.

As for `O=C1NC(=O)C(c2ccccc2C(F)(F)F)=C1Nc1ccc(O)c(Cl)c1` [Compound 1.8], the “Root Growth” value in series [2] (1 g a.i./ha) is on record as 114; in series [2] (10 g a.i./ha) it was 144; in series [2] (100 g a.i./ha), 123.

As to `O=C1NC(=O)C(c2cc(Cl)sc2Cl)=C1Nc1ccc(O)c(Cl)c1` [Compound 1.10], the “Root Growth” value in series [1] (1 g a.i./ha) was determined as 101; in series [1] (10 g a.i./ha), 134; in series [1] (100 g a.i./ha) it was 77.

With `O=C1NC(=O)C(c2ccc(Cl)cc2)=C1Nc1ccc(O)c(C(=O)O)c1` [Compound 1.12], the “Root Growth” value in series [2] (1 g a.i./ha) amounted to 122; in series [2] (10 g a.i./ha), 172; in series [2] (100 g a.i./ha), 199.

On to `Cc1ccc(NC2=C(c3ccc(Br)cc3)C(=O)NC2=O)cc1Cl` [Compound 1.16], for which the “Root Growth” value is listed as 84 in series [1] (1 g a.i./ha); 171 in series [1] (10 g a.i./ha); 129 in series [1] (100 g a.i./ha); 113 in series [2] (1 g a.i./ha); 112 in series [2] (10 g a.i./ha); 158 in series [2] (100 g a.i./ha).

As for `O=C1NC(=O)C(c2ccc(Cl)cc2)=C1Nc1ccc(C(=O)O)cc1` [Compound 1.19], the “Root Growth” value in series [1] (1 g a.i./ha) amounted to 148; in series [1] (10 g a.i./ha) it was 183; in series [1] (100 g a.i./ha), 91.

For the compound `O=C1NC(=O)C(c2c(Cl)cccc2Cl)=C1Nc1cccc(Cl)c1` [Compound 1.20], the “Root Growth” value amounted to 142 in series [2] (1 g a.i./ha), 114 in series [2] (10 g a.i./ha) and 125 in series [2] (100 g a.i./ha).

`CN(C)CCCn1cc(C2=C(c3c[nH]c4ccccc34)C(=O)NC2=O)c2ccccc21` [Compound 8]: the “Root Growth” value was found to be 122 in series [1] (1 g a.i./ha); 150 in series [1] (10 g a.i./ha); 123 in series [1] (100 g a.i./ha); 109 in series [2] (1 g a.i./ha); 150 in series [2] (10 g a.i./ha); 93 in series [2] (100 g a.i./ha).

In the case of `Cn1cc(C2=C(c3cn(CCCN)c4ccccc34)C(=O)NC2=O)c2ccccc21` [Compound 11], the figures for the “Root Growth” value in series [1] (1 g a.i./ha), in series [1] (10 g a.i./ha) and in series [1] (100 g a.i./ha) were 162, 169 and 135, respectively.

As for `Cn1cc(C2=C(c3c4n(c5ccccc35)CCC(CN)C4)C(=O)NC2=O)c2ccccc21` (stereo not drawn) [Compound 12], the “Root Growth” value in series [1] (1 g a.i./ha) was determined as 126; in series [1] (10 g a.i./ha), 150; in series [1] (100 g a.i./ha) it was 141.
